Measurements published in ChEMBL document CHEMBL3425509, “Design, synthesis, and biological evaluation of benzofuran- and 2,3-dihydrobenzofuran-2-carboxylic acid N-(substituted)phenylamide derivatives as anticancer agents and inhibitors of NF-κB” (Bioorg Med Chem Lett, 2015).

Assays:
[1] = Cytotoxicity against human HCT15 cells assessed as growth inhibition after 72 hrs by sulforhodamine B assay; type: functional; settings: HCT-15, 72 h
[2] = test system: NCI-H23; test: Cytotoxicity against human NCI-H23 cells assessed as growth inhibition after 72 hrs by sulforhodamine B assay; type: functional; settings: NCI-H23, 72 h
[3] = test system: ACHN; test: Cytotoxicity against human ACHN cells assessed as growth inhibition after 72 hrs by sulforhodamine B assay; type: functional
[4] = target: Nuclear factor NF-kappa-B complex (Homo sapiens, UniProt P19838+Q00653+Q04206); test: Inhibition of NF-kappaB (unknown origin) transcriptional activity in LPS-induced mouse RAW264.7 cells after 1 hr by secreted alkaline phosphatase assay; type: cell-based
[5] = test system: MDA-MB-231; test: Cytotoxicity against human MDA-MB-231 cells assessed as growth inhibition after 72 hrs by sulforhodamine B assay; type: functional; settings: MDA-MB-231, 72 h
[6] = Cytotoxicity against human PC3 cells assessed as growth inhibition after 72 hrs by sulforhodamine B assay; type: functional; settings: PC-3, 72 h
[7] = Cytotoxicity against human NUGC3 cells assessed as growth inhibition after 72 hrs by sulforhodamine B assay; type: functional; settings: NUGC-3, 72 h
[8] = Cytotoxicity against human PC3 cells assessed as cell viability at 10 uM after 72 hrs by sulforhodamine B assay relative to control; type: functional; settings: PC-3, 72 h, read-out: Activity
[9] = test system: NCI-H23; test: Cytotoxicity against human NCI-H23 cells assessed as cell viability at 10 uM after 72 hrs by sulforhodamine B assay relative to control; type: functional; settings: NCI-H23, 72 h, read-out: Activity
[10] = test system: ACHN; test: Cytotoxicity against human ACHN cells assessed as cell viability at 10 uM after 72 hrs by sulforhodamine B assay relative to control; type: functional; settings: read-out: Activity
[11] = Cytotoxicity against human NUGC3 cells assessed as cell viability at 10 uM after 72 hrs by sulforhodamine B assay relative to control; type: functional; settings: NUGC-3, 72 h, read-out: Activity
[12] = Cytotoxicity against human HCT15 cells assessed as cell viability at 10 uM after 72 hrs by sulforhodamine B assay relative to control; type: functional; settings: HCT-15, 72 h, read-out: Activity
[13] = target: Nuclear factor NF-kappa-B complex (Homo sapiens) (UniProt Q00653+P19838+Q04206); test: Inhibition of NF-kappaB (unknown origin) transcriptional activity in LPS-induced mouse RAW264.7 cells at 30 uM after 1 hr by secreted alkaline phosphatase assay relative to control; type: cell-based
[14] = test system: MDA-MB-231; test: Cytotoxicity against human MDA-MB-231 cells assessed as cell viability at 10 uM after 72 hrs by sulforhodamine B assay relative to control; type: functional; settings: MDA-MB-231, 72 h, read-out: Activity

Chain of Nuclear factor NF-kappa-B complex (Homo sapiens) (P19838 whole entry, looked up): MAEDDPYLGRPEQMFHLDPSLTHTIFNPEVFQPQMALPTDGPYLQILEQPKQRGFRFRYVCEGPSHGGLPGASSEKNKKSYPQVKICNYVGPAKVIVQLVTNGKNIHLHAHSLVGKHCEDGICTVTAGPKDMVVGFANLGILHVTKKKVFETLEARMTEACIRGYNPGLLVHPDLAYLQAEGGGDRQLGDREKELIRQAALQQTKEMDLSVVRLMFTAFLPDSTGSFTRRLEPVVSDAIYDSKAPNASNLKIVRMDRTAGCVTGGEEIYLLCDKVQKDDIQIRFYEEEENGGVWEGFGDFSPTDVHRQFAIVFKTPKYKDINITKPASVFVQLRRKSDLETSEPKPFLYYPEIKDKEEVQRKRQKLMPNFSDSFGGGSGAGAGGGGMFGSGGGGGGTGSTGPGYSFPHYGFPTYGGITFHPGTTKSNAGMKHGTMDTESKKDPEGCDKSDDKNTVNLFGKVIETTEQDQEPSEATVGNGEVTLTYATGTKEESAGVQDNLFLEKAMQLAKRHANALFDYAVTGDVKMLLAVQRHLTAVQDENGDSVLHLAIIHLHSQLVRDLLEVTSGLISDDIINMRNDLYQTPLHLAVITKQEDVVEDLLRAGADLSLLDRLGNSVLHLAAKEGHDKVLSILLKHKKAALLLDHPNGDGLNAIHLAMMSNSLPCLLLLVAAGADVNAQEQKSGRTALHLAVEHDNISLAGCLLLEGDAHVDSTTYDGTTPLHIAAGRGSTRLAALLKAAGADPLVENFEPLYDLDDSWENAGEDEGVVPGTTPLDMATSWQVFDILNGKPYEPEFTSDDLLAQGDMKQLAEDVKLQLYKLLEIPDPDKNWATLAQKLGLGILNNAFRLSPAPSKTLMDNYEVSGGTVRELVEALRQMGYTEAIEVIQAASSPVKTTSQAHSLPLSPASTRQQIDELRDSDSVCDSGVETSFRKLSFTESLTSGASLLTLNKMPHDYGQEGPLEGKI
Chain of Nuclear factor NF-kappa-B complex (Homo sapiens) (Q00653 whole entry, looked up): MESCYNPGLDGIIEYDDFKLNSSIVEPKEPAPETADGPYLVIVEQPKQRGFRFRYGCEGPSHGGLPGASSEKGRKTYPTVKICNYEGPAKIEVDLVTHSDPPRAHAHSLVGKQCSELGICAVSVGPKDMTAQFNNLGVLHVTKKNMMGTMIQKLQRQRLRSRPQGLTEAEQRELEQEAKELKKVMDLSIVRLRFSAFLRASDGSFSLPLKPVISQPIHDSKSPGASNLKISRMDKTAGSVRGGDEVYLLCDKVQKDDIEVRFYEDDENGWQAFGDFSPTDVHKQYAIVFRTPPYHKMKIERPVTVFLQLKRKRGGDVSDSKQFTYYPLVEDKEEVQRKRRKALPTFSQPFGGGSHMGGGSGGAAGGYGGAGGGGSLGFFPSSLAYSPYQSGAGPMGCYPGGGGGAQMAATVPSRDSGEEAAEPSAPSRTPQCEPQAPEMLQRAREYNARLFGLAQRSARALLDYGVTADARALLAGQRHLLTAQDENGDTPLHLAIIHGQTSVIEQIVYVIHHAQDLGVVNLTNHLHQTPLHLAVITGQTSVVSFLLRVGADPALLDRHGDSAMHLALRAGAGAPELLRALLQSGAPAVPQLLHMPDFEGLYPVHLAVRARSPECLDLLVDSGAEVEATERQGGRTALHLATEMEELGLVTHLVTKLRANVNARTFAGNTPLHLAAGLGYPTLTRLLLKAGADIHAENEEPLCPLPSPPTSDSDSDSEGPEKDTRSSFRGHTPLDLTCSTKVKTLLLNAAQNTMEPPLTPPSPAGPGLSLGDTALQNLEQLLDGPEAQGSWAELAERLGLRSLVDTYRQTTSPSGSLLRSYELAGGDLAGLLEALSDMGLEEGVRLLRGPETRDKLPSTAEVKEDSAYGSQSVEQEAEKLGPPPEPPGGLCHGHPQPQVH
Chain of Nuclear factor NF-kappa-B complex (Homo sapiens) (Q04206 whole entry, looked up): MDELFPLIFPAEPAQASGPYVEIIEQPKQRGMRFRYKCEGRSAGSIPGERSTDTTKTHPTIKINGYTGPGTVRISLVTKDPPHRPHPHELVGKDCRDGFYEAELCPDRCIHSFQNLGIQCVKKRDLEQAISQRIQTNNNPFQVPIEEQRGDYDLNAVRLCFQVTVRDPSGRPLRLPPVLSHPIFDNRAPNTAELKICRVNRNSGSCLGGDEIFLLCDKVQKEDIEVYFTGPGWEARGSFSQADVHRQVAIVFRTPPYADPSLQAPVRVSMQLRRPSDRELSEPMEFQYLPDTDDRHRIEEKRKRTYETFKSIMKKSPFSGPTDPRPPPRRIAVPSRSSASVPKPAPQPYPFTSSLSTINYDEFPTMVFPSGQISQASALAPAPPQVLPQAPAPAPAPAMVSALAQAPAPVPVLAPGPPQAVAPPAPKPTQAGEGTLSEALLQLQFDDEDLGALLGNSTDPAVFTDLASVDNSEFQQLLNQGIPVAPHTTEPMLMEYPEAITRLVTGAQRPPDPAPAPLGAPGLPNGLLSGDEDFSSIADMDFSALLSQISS
Chain of Nuclear factor NF-kappa-B complex (P19838 1-433 limits assumed): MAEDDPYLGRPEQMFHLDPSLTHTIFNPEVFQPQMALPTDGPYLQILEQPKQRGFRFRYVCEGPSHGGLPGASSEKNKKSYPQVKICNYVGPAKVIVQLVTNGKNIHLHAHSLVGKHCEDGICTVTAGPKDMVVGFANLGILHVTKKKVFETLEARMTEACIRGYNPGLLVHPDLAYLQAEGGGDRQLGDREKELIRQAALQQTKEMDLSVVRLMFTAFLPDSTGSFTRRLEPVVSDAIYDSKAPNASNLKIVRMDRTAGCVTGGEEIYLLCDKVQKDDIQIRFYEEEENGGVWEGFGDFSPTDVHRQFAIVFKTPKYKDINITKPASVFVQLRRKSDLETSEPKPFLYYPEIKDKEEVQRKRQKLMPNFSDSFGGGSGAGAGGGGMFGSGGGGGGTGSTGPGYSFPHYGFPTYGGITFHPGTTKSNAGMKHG
Chain of Nuclear factor NF-kappa-B complex (Q00653 1-454 limits assumed): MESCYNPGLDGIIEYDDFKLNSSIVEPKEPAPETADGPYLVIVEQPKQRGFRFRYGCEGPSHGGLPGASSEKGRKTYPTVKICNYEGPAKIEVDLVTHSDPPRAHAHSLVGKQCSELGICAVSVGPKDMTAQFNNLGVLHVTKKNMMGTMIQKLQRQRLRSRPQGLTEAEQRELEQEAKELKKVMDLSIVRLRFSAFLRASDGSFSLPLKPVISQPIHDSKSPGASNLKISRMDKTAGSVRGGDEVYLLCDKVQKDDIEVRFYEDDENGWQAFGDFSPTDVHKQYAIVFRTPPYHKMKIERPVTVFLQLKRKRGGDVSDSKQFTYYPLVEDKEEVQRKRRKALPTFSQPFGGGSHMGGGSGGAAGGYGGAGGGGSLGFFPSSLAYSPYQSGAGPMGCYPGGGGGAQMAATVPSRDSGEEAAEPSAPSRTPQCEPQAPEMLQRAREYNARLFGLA
Chain of Nuclear factor NF-kappa-B complex (Q04206 whole entry): as the sequence (Q04206 whole entry, looked up) above

Structure (SMILES)	IC50 [4]	inhibition [13]	GI50 [1]	GI50 [2]	GI50 [3]	GI50 [5]	GI50 [6]	GI50 [7]	viability at 10 µM [8]	viability at 10 µM [9]	viability at 10 µM [10]	viability at 10 µM [11]	viability at 10 µM [12]	viability at 10 µM [14]
S=C(S)N1CCCC1 [PYRROLIDINE DITHIOCARBAMATE]	34.5 µM	–	0.13 µM	0.1 µM	0.23 µM	0.16 µM	0.17 µM	0.14 µM	–	–	–	–	–	–
O=C(Nc1ccc([N+](=O)[O-])cc1)C1Cc2ccccc2O1 (stereo not drawn)	–	34%	–	–	–	–	1.86 µM	–	10%	77%	93%	86%	81%	85%
O=C(Nc1cc(C(F)(F)F)cc(C(F)(F)F)c1)c1cc2ccccc2o1	34 µM	51.5%	–	–	–	–	–	–	110%	101%	95%	98%	98%	98%
O=C(Nc1cc(Cl)cc(Cl)c1)c1cc2ccccc2o1	–	20%	–	–	–	–	–	–	99%	100%	99%	93%	95%	102%
COc1ccc(NC(=O)c2cc3ccccc3o2)cc1OC	–	40%	–	–	–	–	–	–	98%	102%	99%	90%	92%	81%
COc1ccc(NC(=O)c2cc3ccccc3o2)cc1	–	39.5%	–	–	–	–	–	–	111%	101%	109%	102%	87%	110%
O=C(Nc1ccc(C(F)(F)F)cc1)c1cc2ccccc2o1	–	34.5%	–	–	–	–	–	–	74%	89%	79%	75%	80%	89%
O=C(Nc1ccc([N+](=O)[O-])cc1)c1cc2ccccc2o1	–	34.5%	–	–	–	–	–	–	87%	101%	94%	95%	84%	111%
O=C(Nc1ccc(O)cc1)c1cc2ccccc2o1	–	62%	2.37 µM	2.48 µM	2.74 µM	2.2 µM	2.68 µM	5.86 µM	-31%	25%	10%	47%	18%	-32%
O=C(Nc1ccccc1C(F)(F)F)c1cc2ccccc2o1	–	57.5%	–	–	–	–	–	–	95%	100%	98%	93%	99%	114%
COc1cccc2c1C(=O)c1c(O)c3c(c(O)c1C2=O)C[C@@](O)(C(=O)CO)C[C@@H]3O[C@H]1C[C@H](N)[C@H](O)[C@H](C)O1 [DOXORUBICIN]	–	–	0.45 µM	0.4 µM	0.2 µM	0.56 µM	0.91 µM	0.19 µM	–	–	–	–	–	–
COc1cc2c(cc1O)CCC(C(=O)Nc1ccccc1)O2 (stereo not drawn)	37.2 µM	–	–	–	–	–	–	–	90%	86%	109%	99%	105%	81%
O=C(Nc1cccc(C(F)(F)F)c1)C1Cc2ccccc2O1 (stereo not drawn)	–	30.5%	–	–	–	–	–	–	69%	100%	134%	93%	95%	102%
COc1ccccc1NC(=O)c1cc2ccccc2o1	–	41%	–	–	–	–	–	–	106%	98%	95%	99%	94%	97%
Cc1cc(C)cc(NC(=O)c2cc3ccccc3o2)c1	–	70%	–	–	–	–	–	–	94%	99%	101%	93%	79%	94%
Cc1ccc(C)c(NC(=O)c2cc3ccccc3o2)c1	–	58%	–	–	–	–	–	–	98%	94%	82%	88%	94%	102%
O=C(Nc1ccccc1)C1Cc2ccccc2O1 (stereo not drawn)	–	10%	–	–	–	–	–	–	92%	93%	95%	87%	88%	101%

The next lines start with results.

IC50 [4]	inhibition [13]	Structure (SMILES)	GI50 [1]	GI50 [2]	GI50 [3]	GI50 [5]	GI50 [6]	GI50 [7]	viability at 10 µM [8]	viability at 10 µM [9]	viability at 10 µM [10]	viability at 10 µM [11]	viability at 10 µM [12]	viability at 10 µM [14]
–	21.5%	COc1ccc(NC(=O)C2Cc3ccccc3O2)cc1OC (stereo not drawn)	–	–	–	–	–	–	38%	101%	127%	87%	92%	71%
–	43.5%	O=C(Nc1cccc(Cl)c1)C1Cc2ccccc2O1 (stereo not drawn)	–	–	–	–	–	–	91%	101%	134%	101%	97%	80%
–	37.5%	O=C(Nc1ccccc1Cl)C1Cc2ccccc2O1 (stereo not drawn)	–	–	–	–	–	–	96%	104%	87%	104%	102%	81%
23 µM	65%	O=C(Nc1ccc(Cl)c(Cl)c1)C1Cc2ccccc2O1 (stereo not drawn)	–	–	–	–	–	–	99%	94%	109%	107%	88%	98%
–	39.5%	COc1ccc(OC)c(NC(=O)C2Cc3ccccc3O2)c1 (stereo not drawn)	–	–	–	–	–	–	81%	99%	126%	95%	97%	89%
–	28.5%	O=C(Nc1ccccc1[N+](=O)[O-])C1Cc2ccccc2O1 (stereo not drawn)	–	–	–	–	–	–	89%	97%	108%	89%	94%	92%
–	17%	O=C(Nc1cccc(O)c1)C1Cc2ccccc2O1 (stereo not drawn)	–	–	–	–	3.97 µM	–	4%	60%	125%	110%	97%	63%
–	25%	Cc1cccc(NC(=O)C2Cc3ccccc3O2)c1 (stereo not drawn)	–	–	–	–	–	–	96%	98%	145%	108%	99%	95%
–	34.5%	Cc1ccc(NC(=O)C2Cc3ccccc3O2)cc1 (stereo not drawn)	–	–	–	–	–	–	80%	105%	134%	112%	100%	96%
–	22.5%	COc1ccc(NC(=O)C2Cc3ccccc3O2)cc1 (stereo not drawn)	–	–	–	–	–	–	81%	102%	140%	108%	89%	94%
